Laboratory results from PMC6701825, “Antiproliferative and Antimigratory Effects of a Novel YAP–TEAD Interaction Inhibitor Identified Using in Silico Molecular Docking” (Journal of Medicinal Chemistry, 2019).

Legend:
[1] = test system: TEAD-dependent transcriptional activity; test: 8xTEAD secreted nanoluciferase (TEAD-NLUC) reporter assay in HeLa cells; type: cell-based, human; conditions: HeLa, indicated concentrations, 6 h
Source text: The shortlisted sets of 16 compounds were first assayed for their ability to inhibit TEAD-dependent transcriptional activity in HeLa cells that had been transduced with a recombinant lentiviral vector expressing secreted bioluminescent nanoluciferase (NLUC) reporter gene enzyme, which is expressed under the control of a promoter region containing eight TEAD DNA-binding elements (TEAD-NLUC).
Compounds were initially screened for ability to inhibit TEAD-dependent transcriptional activity in HeLa cells transduced with a lentiviral vector expressing secreted nanoluciferase under the control of multimerized TEAD consensus elements (5′-[…]-3′). 8xTEAD NanoLuc was generated by cloning the 8xTEAD promoter from the 8xTEAD-Luc plasmid (Addgene #34615) into the pENTR gateway entry vector (Promega). This was then recombined into pLNT-sec-Nluc-2A-eGFP destination vector (supplied by Tristan McKay; University of Manchester). Lentiviruses were generated by Viafect-mediated co-transfection of pLNT8x-TEAD-sec-Nluc-2A-eGFP, Δ8.9, and VSV-G vectors into HEK293T cells (ATCC), and lentiviral-containing culture supernatants were used to infect HeLa cells in the presence of 6 μg/mL polybrene. For compound screening, 8xTEAD NanoLuc-transduced HeLa cells were seeded at 2 × 10^4 cells/well in 96-well plates. After 48 h, the cells were washed in PBS and incubated with test compounds at the indicated concentrations for 2 h. The cells were washed again in PBS and incubated with the compound for a further 4 h. Conditioned culture medium (50 μL) was assayed for secreted nanoluciferase activity using NanoGlo activity assays kit (Promega) and a Glomax Discover luminometer.

HeLa cells = test: Live/dead cell viability assay (ethidium homodimer-1) in HeLa cells; type: cell-based; conditions: 6 hours
Method: Cell viability was quantified using the live/dead viability/cytotoxicity assay standard protocol (Invitrogen). Maximum cell death was quantified by incubating cells for 10 min with 0.1% Triton-X, followed by incubation with 0.4 μM ethidium homodimer-1 for an additional 10 min. Fluorescence was measured using a GloMax Discover multiplate reader (Promega).
Supplement Figure 3: Effect of shortlisted compounds on cell viability
(§1) HeLa cells transduced with TEAD-NLUC reporter were treated with indicated compounds at 100 µM for 6 hours (n=3). Cell viability was quantified by staining with 0.4 µM ethidium homodimer-1 and ethidium homodimer-1 uptake quantified by measuring fluorescence at 645 nm using a Glomax Discover plate reader.
(1 picture or pasted object on this page, not shown here)
as §1, with “Supplement Figure 6: Effect of CPD3, CPD3.1, CPD3.2 and CPD 3.3 on cell viability HeLa” for “HeLa”, “concentrations of CPD3, CPD3.1, CPD3.2 and CPD 3.3” for “compounds at 100 µM”, “plate” for “plate reader.”

[2] = indicated concentrations, HeLa (Supplement Figure 6)

| Compound | effect on TEAD-NLUC activity [1] | effect on cell viability (HeLa cells; [2]) | effect on cell viability (HeLa cells; 100 µM, HeLa TEAD-NLUC cells) |
| --- | --- | --- | --- |
| OCC(O)CN1CCNCC1 (centres unmarked) [CPD3.2] | Neither CPD3.2 nor CPD3.3 had any effect | Neither CPD3.2 nor CPD3.3 had any effect | – |
| O=C(O)c1ccco1 [CPD3.3] | Neither CPD3.2 nor CPD3.3 had any effect | Neither CPD3.2 nor CPD3.3 had any effect | – |
| O=C(NCCn1ncc2c(N3CCN(c4ncccn4)CC3)ncnc21)C12CC3CC(CC(C3)C1)C2 [CPD8] | – | – | without significantly affecting cell viability |
